Earlier results in US6548637B1, “Ligands for opioid receptors” (Sepracor, Inc., priority 1998, dated 2003).

System: mice
Settings: intracerebroventricular injections to mice

NC(=O)[C@H](Cc1ccccc1)NC(=O)[C@H](Cc1c[nH]c2ccccc12)NC(=O)C1CCCN1C(=O)[C@@H](N)Cc1ccc(O)cc1 (stereo partly drawn) [Example 1, Tyr-Pro-Trp-Phe-NH2]
ED50 (analgesia): 8.4 µg

NC(=O)C(Cc1ccccc1)NC(=O)[C@H](Cc1ccccc1)NC(=O)C1CCCN1C(=O)[C@@H](N)Cc1ccc(O)cc1 (stereo partly drawn) [Example 2, Tyr-Pro-Phe-Phe-NH2]
ED50 (analgesia): 2.9 µg
